From patent US20260108614A1, “IMMOBILIZED ENDOGLYCOSIDASE FUSION PROTEIN AND USE THEREOF” (GENEQUANTUM HEALTHCARE (SUZHOU) CO., LTD., priority 2022, published 2026)
Like-named read-outs stand apart in the source and are kept apart here. Square brackets hold non-standard residues; d marks the D form. Peptide text beside a SMILES is read from it. * marks the point of attachment. Dolaproine = CO[C@@H]([C@@H]1CCCN1)[C@@H](C)C(=O)O; Dil = CC[C@H](C)[C@H](NC)[C@@H](CC(=O)O)OC; X1 = C[C@@H](N*)[C@@H](O)c1ccccc1; NMeV = CN[C@H](C(=O)O)C(C)C

Legend:
[1] = system: human liver cancer cells HepG2; assay: Tumor cell proliferation inhibition (CellTiter Glo), HepG2; type: cell-based; conditions: "—" = undetected, read-out: Inhibitory effect on proliferation of Tumor Cells (IC50, nM), HepG2
Description: (§1) 1) ErbB2/Her2-positive human breast cancer cells BT-474, ErbB2/Her2-positive human gastric cancer cells NCI-N87 and ErbB2/Her2-negative human liver cancer cells HepG2 were inoculated into a 96-well cell plate at 100 μl/well (1000 to 10000 cells), and incubated overnight in a cell incubator under the conditions of 37° C., 5% CO2, and 100% humidity.
(§2) Incubation was further performed at 37° C. for 72 to 120 h.
(§3) 3) The cell plate was removed from the 37° C. cell incubator, and equilibrated for about 30 min to room temperature. 100 μl of CellTiter Glo reagent was added into each well, a shaker shook for 2 min, followed by standing in a dark place at room temperature for 10 min, and a relative light unit (RLU) was measured with an MD M4 microplate reader.
(§4) BxPC-3, FaDu, HepG2 and other human tumor cells were selected.
(§5) TROP2-positive human tumor cells such as BxPC-3 (human pancreatic cancer cell) and FaDu (human throat cancer cell), and TROP2-negative tumor cells such as HepG2 (human liver cancer cell) were selected.

[2] = system: ErbB2/Her2-positive human breast cancer cells BT-474; assay: Tumor cell proliferation inhibition (CellTiter Glo), BT-474; type: cell-based; conditions: Table 3; incubation 72 to 120 h; "—" = undetected; read-out: Inhibitory effect on proliferation of Tumor Cells (IC50, nM), BT-474
Description: as §1, §2, §3

[3] = system: BxPC-3 (human pancreatic cancer cell); assay: Tumor cell proliferation inhibition, BxPC-3; type: cell-based; conditions: Table 7; TROP2-positive; "—" = undetected; read-out: Inhibitory effect on proliferation of Tumor Cells (IC50, nM), BxPC-3
Description: as §1, §2, §3, §4, §5

[4] = system: ErbB2/Her2-positive cells; assay: Tumor cell proliferation inhibition, ErbB2/Her2-positive cells as a group; type: cell-based, human; conditions: Example 9; BT-474 and NCI-N87
[5] = system: ErbB2/Her2-positive human gastric cancer cells NCI-N87; assay: Tumor cell proliferation inhibition (CellTiter Glo), NCI-N87; type: cell-based; conditions: Table 3; incubation 72 to 120 h; "—" = undetected; read-out: Inhibitory effect on proliferation of Tumor Cells (IC50, nM), NCI-N87
Description: as §1, §2, §3

[6] = system: FaDu (human throat cancer cell); assay: Tumor cell proliferation inhibition, FaDu; type: cell-based; conditions: Table 7; TROP2-positive; "—" = undetected; read-out: Inhibitory effect on proliferation of Tumor Cells (IC50, nM), FaDu
Description: as §1, §2, §3, §4, §5

[7] = system: TROP2-positive cells; assay: Tumor cell proliferation inhibition, TROP2-positive cells as a group; type: cell-based, human; conditions: Example 19; BxPC-3 and FaDu
Description: as §1, §2, §3, §4, §5

CC[C@H](C)[C@@H]([C@@H](CC(=O)N1CCC[C@H]1[C@H](OC)[C@@H](C)C(=O)N[C@H](C)[C@@H](O)c1ccccc1)OC)N(C)C(=O)[C@@H](NC(=O)[C@@H](NC)C(C)C)C(C)C [MMAE, monomethylauristatin E, reference compound] (H-[NMeV]V[Dil][Dolaproine]-X1)
IC50 ([1]; Table 3, ErbB2/Her2-negative cells, incubation 72 to 120 h): 0.567 nM | IC50 ([1]; Table 7, TROP2-negative): 0.398 nM | IC50 [2]: 0.272 nM | IC50 [3]: 0.388 nM | inhibitory effect on proliferation of the ErbB2/Her2-positive cells (in words) [4]: obvious inhibitory effect | IC50 [5]: 0.248 nM | IC50 [6]: 0.167 nM | inhibitory effect on proliferation of the TROP2-positive cells (in words) [7]: obvious inhibitory effect
